From ChEMBL document CHEMBL1127956, “Tetrahydroisoquinoline as a phenylalanine replacement in renin inhibitors” (Bioorg Med Chem Lett, 1994)

What was measured:
Renin = biological target: T1, Renin (Homo sapiens, UniProt P00797); experiment: In vitro inhibitory activity against monkey plasma renin; type: cell-free, Cercopithecidae; settings: target entry is the homologue from another species
T1 sequence (P00797 whole entry): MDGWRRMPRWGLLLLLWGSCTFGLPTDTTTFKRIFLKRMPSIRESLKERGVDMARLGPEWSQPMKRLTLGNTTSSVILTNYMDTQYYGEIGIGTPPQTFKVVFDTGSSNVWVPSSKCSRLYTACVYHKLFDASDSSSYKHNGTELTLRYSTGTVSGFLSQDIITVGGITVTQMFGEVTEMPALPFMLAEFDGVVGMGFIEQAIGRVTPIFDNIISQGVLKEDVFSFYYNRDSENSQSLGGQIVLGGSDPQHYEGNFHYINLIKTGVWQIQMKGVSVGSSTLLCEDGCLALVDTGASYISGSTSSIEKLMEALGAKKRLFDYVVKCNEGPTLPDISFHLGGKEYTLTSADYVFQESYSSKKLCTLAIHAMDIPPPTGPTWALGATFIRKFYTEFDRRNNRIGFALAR

Renin (Homo sapiens) = biological target: T2, Renin (Homo sapiens) (UniProt P00797); experiment: In vitro inhibitory activity against monkey plasma renin was determined at 10e-6 M; type: cell-free; settings: Cercopithecidae, target entry is the homologue from another species
T2 sequence (whole entry): T1 sequence (P00797 whole entry)

Structure (SMILES) | IC50 (Renin) [nM] | inhibition (Renin (Homo sapiens)) [%]
C=CC[C@H](NC(=O)[C@H]1Cc2ccccc2CN1C(=O)OC(C)(C)C)C(=O)N[C@@H](CC1CCCCC1)[C@@H](O)[C@@H](O)CC(C)C | 325 | 
C=CC[C@H](NC(=O)[C@@H]1Cc2ccccc2CN1C(=O)OC(C)(C)C)C(=O)N[C@@H](CC1CCCCC1)[C@@H](O)[C@@H](O)CC(C)C | 146 | 
CC(C)C[C@H](O)[C@H](O)[C@H](CC1CCCCC1)NC(=O)CCC(=O)[C@@H]1Cc2ccccc2CN1C(=O)OC(C)(C)C |  | 9.8
CC(C)C[C@H](O)[C@H](O)[C@H](CC1CCCCC1)NC(=O)CNC(=O)[C@@H]1Cc2ccccc2CN1C(=O)OC(C)(C)C |  | 11.9
CC(C)C[C@H](O)[C@H](O)[C@H](CC1CCCCC1)NC(=O)CCC(O)[C@@H]1Cc2ccccc2CN1C(=O)OC(C)(C)C (stereo partly specified) |  | 0
C=CC[C@H](NC(=O)[C@H]1Cc2ccccc2CN1)C(=O)N[C@@H](CC1CCCCC1)[C@@H](O)[C@@H](O)CC(C)C | 373 | 

The remaining lines, values ahead:

IC50 (Renin) [nM] | inhibition (Renin (Homo sapiens)) [%] | Structure (SMILES)
101 |  | CC(C)C[C@H](O)[C@H](O)[C@H](CC1CCCCC1)NC(=O)CNC(=O)[C@@H]1Cc2ccccc2CN1S(=O)(=O)N1CCOCC1
11.5 |  | C=CC[C@H](NC(=O)[C@@H]1Cc2ccccc2CN1)C(=O)N[C@@H](CC1CCCCC1)[C@@H](O)[C@@H](O)CC(C)C
0.42 |  | C=CC[C@H](NC(=O)[C@H](Cc1ccccc1)NC(=O)OC(C)(C)C)C(=O)N[C@@H](CC1CCCCC1)[C@@H](O)[C@@H](O)CC(C)C
2.89 |  | C=CC[C@H](NC(=O)[C@@H]1Cc2ccccc2CN1S(=O)(=O)N1CCOCC1)C(=O)N[C@@H](CC1CCCCC1)[C@@H](O)[C@@H](O)CC(C)C
3.6 |  | CC(C)C[C@H](O)[C@H](O)[C@H](CC1CCCCC1)NC(=O)CNC(=O)[C@H](Cc1ccccc1)NS(=O)(=O)N1CCOCC1
